Laboratory results taken from publication PMC6149664, “Synthesis and In Vitro Antimycobacterial Activity of Novel N-Arylpiperazines Containing an Ethane-1,2-diyl Connecting Chain” (Molecules : A Journal of Synthetic Chemistry and Natural …, 2017).
Like-named read-outs stand apart in the source and are kept apart here.

Experiments:
[1] = test system: M. kansasii 6 509/96 clinical isolate; experiment: In vitro antimycobacterial MIC, dilution-micromethod in Šula semisynthetic medium; type: cell-based; conditions: Mycobacterium kansasii, read-out: MIC, MK 6 509/96
M. kansasii CIT11/06 = experiment: In vitro antimycobacterial MIC (IC90), alamarBlue 96-well assay in Middlebrook broth; type: cell-based, Mycobacterium kansasii; conditions: Mycobacterium kansasii, CIT11/06, 168 h, 7 days incubation, read-out: MIC, MK CIT11/06
[2] = test system: M. avium intracellulare ATCC 13950; experiment: as above; type: cell-based, Mycobacterium avium intracellulare; conditions: Mycobacterium avium, ATCC13950, 168 h, 7 days incubation, read-out: MIC, MAI ATCC 13950
[3] = test system: M. avium CNCTC My 330/80 (identical with ATCC 25291); experiment: In vitro antimycobacterial MIC, dilution-micromethod in Šula semisynthetic medium; type: cell-based; conditions: Mycobacterium avium
[4] = test system: M. avium hominissuis CIT10/08; experiment: In vitro antimycobacterial MIC (IC90), alamarBlue 96-well assay in Middlebrook broth; type: cell-based, Mycobacterium avium hominissuis; conditions: Mycobacterium avium, 168 h, 7 days incubation, read-out: MIC, MAH CIT10/08
[5] = type: physicochemical; design: key to RM (RP-TLC): RM = log(1/Rf - 1), from Rf in HCl/acetone mobile phase
Protocol: In the RP-TLC, silica gel plates impregnated by a hand with a variously concentrated silicone oil in heptane (a strong hydrophobic agent) were used as a non-polar stationary phase. Optimal differences in RM values within both homological groups 8a–d and 8e–h were observed if 1% silicone oil in heptane was chosen (Tables 1 and S1 in Supplementary Materials).
The RM values were calculated according to Equation (5) from the Rf parameters observed in a SM mobile phase: hydrochloric acid (c = 1.0 M)/acetone (4:1, v/v):RM = log (1/Rf – 1)(5)
For the experiments, aluminium sheets pre-coated with silica gel 60 F254 (0.25 mm thickness; Merck) were impregnated by a variously concentrated silicone oil in heptane, which ranged from 1% to 5%. The plates were separately spotted with 2 µL of methanolic solutions of each compound (c = 1 mg/mL), starting points were 1 cm from a bottom edge of these plates. The chromatographic plates were developed in glass developing chambers saturated for 30 min by the SM mobile phase. Development was carried out upon 15 cm from a starting line by an ascending technique. After being developed, the plates were dried at room temperature. Detection of zones was performed under iodine vapours/UV light at λ = 254 nm. Each experiment was run in triplicate at 21 °C, the RM values of analytes were calculated separately for each run.
Optimal differences in RM values within both homological groups 8a–d and 8e–h were observed if 1% silicone oil in heptane was chosen. The Rfs were found in a range from 0.19 (8h) to 0.78 (8a; Table 1). All the calculated average RM values were summarized in Table S1 (Supplementary Materials).

[6] = Isocratic RP-HPLC lipophilicity (k, log k, extrapolated log kw, slope S), MeOH/water mobile phases; type: physicochemical; conditions: for log kw (RP-HPLC): extrapolated to 100% water from log k vs ϕM (MeOH); for S, slope (RP-HPLC): slope of regression log k vs ϕM, alternative measure of lipophilicity
Description: Octadecyl-functionalized silica gel was used as a stationary phase in the RP-HPLC evaluation of 8a–h. A gradient of two solvents at different volume ratios modulated retention properties of a stationary phase. Liquid binary mixtures of methanol (MeOH) with water were employed as mobile phases in a present isocratic RP-HPLC method. The MeOH organic modifier was preferred because of making a reversed-phase chromatographic system closer to the octan-1-ol/water partitioning one in terms of sensitivity to H-bond donor properties of investigated compounds [39, 40]. The modifier was applied in different volume concentrations that varied from 60% to 85% (v/v).
The chromatographic HPLC-Diode Array Detection apparatus for the determination of capacity (retention) factor k (log k) values was the LC Agilent Infinity System (Agilent Technologies, Santa Clara, CA, USA) equipped with a Infinity 1260 gradient pump with a degasser, a 1260 HiPals automatic injector, a column thermostat 1290, a photo-diode array detector Infinity 1290 (all the equipments were obtained by Agilent Technologies) and personal computer with the Agilent ChemStation software (Agilent Technologies) for the registration of values and calibration procedures. The chromatographic column Eclipse plus RP C18, 150 × 4.6 mm i.d., a 5 μm particle size (Agilent Technologies), was used and thermostated at 35 °C.
The analyses were performed at pressure ranged from 7 MPa to 15 MPa. The detection wavelength was set to 260 nm, injection sample volume was 5 μL with a flow rate of 1.0 mL/min in all RP-HPLC analyses.
LC-MS Methanol (J. T. Baker Chemicals Co., Phillipsburg, NJ, USA) and HPLC-quality water (Sigma-Aldrich, Darmstadt, Germany) were used for a preparation of mobile phases. Water was firstly deionized and purified by the Millipore Simplicity 185 Ultrapure water purification system (Millipore, Billerica, MA, USA).
Methanol (MeOH)/water mobile phases with a various volume ratio of the organic modifier and water (60:40, 70:30, 80:20 and 85:15, respectively; v/v) were chosen. A concentration of all analyzed compounds 8a–h was c = 0.25 mg/mL. An queous solution of potassium nitrate (c = 0.1 M) was used for the determination of dead time t0 = 1.295 min. The capacity (retention) factor k values (Table 1) were calculated by Equation (6) as follows:k = (tr – t0)/t0(6) where the tr and t0 parameters were the retention times of a solute (tr) and unretained compound (potassium nitrate; t0), respectively. The observed retention (tr) and dead (t0) times were means of three independent determinations.
The log kw values, i.e., the logarithms of extrapolated capacity (retention) factors for 100% water in the isocratic RP-HPLC, were determined from intercepts of linear plots between the log k and ϕM (a volume fraction of an organic modifier in the isocratic elution RP-HPLC) according to Equation (7): log k = log kw – S × ϕM(7) where the S parameter represented the slope of a regression curve, which was related to the solvent strength of a pure organic solvent.

[7] = test system: M. avium subsp. paratuberculosis CIT03; experiment: microbe, parasite or virus in culture; type: cell-based; conditions: Mycobacterium avium, 168 h; 7 days incubation, alamarBlue; MIC = IC90; read-out: MIC, MAP CIT03
[8] = ATCC25291, 336 h, 14-d/21-d, read-out: MIC against M. avium CNCTC My 330/80
[9] = ATCC25291, 336 h, 14 d cultivation, read-out: MIC, MA My 330/88
[10] = ATCC25291, 504 h, 21 d cultivation, read-out: MIC, MA My 330/88
[11] = silica gel plates impregnated with 3% silicone oil in heptane
[12] = silica gel plates impregnated with 5% silicone oil in heptane
[13] = mobile phase MeOH/water 60:40 (v/v)
[14] = mobile phase MeOH/water 70:30 (v/v)
[15] = mobile phase MeOH/water 80:20 (v/v)
[16] = mobile phase MeOH/water 85:15 (v/v)

COC(=O)Nc1cccc(C(O)CN2CCN(c3ccccc3F)CC2)c1.Cl (stereo not shown) [8a, 1-(2-Hydroxy-2-{3-[(methoxycarbonyl)amino]phenyl}ethyl)-4-(2-fluorophenyl)piperazin-1-ium chloride]
MIC ([1]; 168 h, 7 d cultivation): 125 µM
MIC ([1]; 336 h, 14 d cultivation): 500 µM
MIC ([1]; 504 h, 21 d cultivation): 500 µM
MIC (M. kansasii CIT11/06): > 610 µM
MIC [2]: > 610 µM
MIC [3, 8]: 500 µM
MIC [3, 9]: 500 µM
MIC [3, 10]: 500 µM
MIC [4]: > 610 µM
RM (RP-TLC) [5, 11]: -0.16
RM (RP-TLC) [5, 12]: -0.05
capacity factor k (RP-HPLC) ([6]; MeOH/water 60:40 (v/v)): 4.091
capacity factor k (RP-HPLC) ([6]; MeOH/water 70:30 (v/v)): 1.770
capacity factor k (RP-HPLC) ([6]; MeOH/water 80:20 (v/v)): 0.925
capacity factor k (RP-HPLC) ([6]; MeOH/water 85:15 (v/v)): 0.699
log kw (RP-HPLC) [6]: 2.430
log k (RP-HPLC) [6, 13]: 0.612
log k (RP-HPLC) [6, 14]: 0.248
log k (RP-HPLC) [6, 15]: −0.034
log k (RP-HPLC) [6, 16]: −0.156
S, slope (RP-HPLC) [6]: 3.0678
MIC [7]: > 610 µM

CCCCOC(=O)Nc1cccc(C(O)CN2CCN(c3ccccc3F)CC2)c1.Cl (stereo not shown) [8d, 1-(2-{3-[(Butoxycarbonyl)amino]phenyl}-2-hydroxyethyl)-4-(2-fluorophenyl)piperazin-1-ium chloride]
MIC ([1]; 168 h, 7 d cultivation): 16 µM
MIC ([1]; 336 h, 14 d cultivation): 32 µM
MIC ([1]; 504 h, 21 d cultivation): 62.5 µM
MIC (M. kansasii CIT11/06): > 553 µM
MIC [2]: > 553 µM
MIC [3, 8]: 62.5 µM
MIC [3, 9]: 62.5 µM
MIC [3, 10]: 62.5 µM
MIC [4]: > 553 µM
RM, lipophilicity index (RP-TLC) [5]: 0.01
RM (RP-TLC) [5, 12]: 0.64
capacity factor k (RP-HPLC) ([6]; MeOH/water 60:40 (v/v)): 6.738
capacity factor k (RP-HPLC) ([6]; MeOH/water 70:30 (v/v)): 5.039
capacity factor k (RP-HPLC) ([6]; MeOH/water 80:20 (v/v)): 1.769
capacity factor k (RP-HPLC) ([6]; MeOH/water 85:15 (v/v)): 1.185
log kw (RP-HPLC) [6]: 2.796
log k (RP-HPLC) [6, 13]: 0.829
log k (RP-HPLC) [6, 14]: 0.702
log k (RP-HPLC) [6, 15]: 0.245
log k (RP-HPLC) [6, 16]: 0.074
S, slope (RP-HPLC) [6]: 3.1641
MIC [7]: > 53 µM

CCOC(=O)Nc1ccc(C(O)CN2CCN(c3ccccc3F)CC2)cc1.Cl (stereo not shown) [8f, 1-(2-{4-[(Ethoxycarbonyl)amino]phenyl}-2-hydroxyethyl)-4-(2-fluorophenyl)piperazin-1-ium chloride]
MIC ([1]; 168 h): 62.5 µM
MIC ([1]; 336 h, 14 d cultivation): > 125 µM
MIC ([1]; 504 h, 21 d cultivation): > 125 µM
MIC (M. kansasii CIT11/06): 295 µM
MIC [2]: > 590 µM
MIC [3, 9]: > 250 µM
MIC [3, 10]: > 250 µM
MIC [4]: > 590 µM
RM, lipophilicity index (RP-TLC) [5]: 0.19
RM (RP-TLC) [5, 11]: 0.31
RM (RP-TLC) [5, 12]: 0.41
capacity factor k (RP-HPLC) ([6]; MeOH/water 60:40 (v/v)): 4.524
capacity factor k (RP-HPLC) ([6]; MeOH/water 70:30 (v/v)): 2.053
capacity factor k (RP-HPLC) ([6]; MeOH/water 80:20 (v/v)): 1.023
capacity factor k (RP-HPLC) ([6]; MeOH/water 85:15 (v/v)): 0.757
log kw (RP-HPLC) [6]: 2.512
log k (RP-HPLC) [6, 13]: 0.656
log k (RP-HPLC) [6, 14]: 0.312
log k (RP-HPLC) [6, 15]: 0.010
log k (RP-HPLC) [6, 16]: −0.121
S, slope (RP-HPLC) [6]: 3.1156
MIC [7]: > 590 µM

CCCCOC(=O)Nc1ccc(C(O)CN2CCN(c3ccccc3F)CC2)cc1.Cl (stereo not shown) [8h, 1-(2-{4-[(Butoxycarbonyl)amino]phenyl}-2-hydroxyethyl)-4-(2-fluorophenyl)piperazin-1-ium chloride]
MIC ([1]; 168 h, 7 d cultivation): 125 µM
MIC ([1]; 336 h, 14 d cultivation): > 250 µM
MIC ([1]; 504 h, 21 d cultivation): > 250 µM
MIC (M. kansasii CIT11/06): > 553 µM
MIC [2]: > 553 µM
MIC [3, 9]: > 250 µM
MIC [3, 10]: 250 µM
MIC [4]: > 553 µM
RM, lipophilicity index (RP-TLC) [5]: 0.63
RM (RP-TLC) [5, 11]: 0.83
RM (RP-TLC) [5, 12]: 0.83
capacity factor k (RP-HPLC) ([6]; MeOH/water 60:40 (v/v)): 7.598
capacity factor k (RP-HPLC) ([6]; MeOH/water 70:30 (v/v)): 4.627
capacity factor k (RP-HPLC) ([6]; MeOH/water 80:20 (v/v)): 1.736
capacity factor k (RP-HPLC) ([6]; MeOH/water 85:15 (v/v)): 1.173
log kw (RP-HPLC) [6]: 2.930
log k (RP-HPLC) [6, 13]: 0.881
log k (RP-HPLC) [6, 14]: 0.665
log k (RP-HPLC) [6, 15]: 0.240
log k (RP-HPLC) [6, 16]: 0.069
S, slope (RP-HPLC) [6]: 3.3441
MIC [7]: > 553 µM
